8 molecules from US10286000B2, “Retinoid X receptor-gamma agonists and retinoid X receptor-alpha antagonists for treatment of cancer” (St. Jude Children's Research Hospital, Inc., priority 2013, dated 2019) can be followed below.

Entries after “also recorded” stand apart in the source; their conditions may differ.

Data set [1] has as its system NKG2DL (MICA-B, ULBP1-3) surface expression. Description: flow cytometry of NKG2DL cell surface expression in cancer cell lines. Type of data set: cell-based, human. Particulars: for effect of co-treatment on SPIR's upregulation of NKG2DLs: HCT116, SPIR 56 μM 3 days, HX531 10 μM, caffeine 1.5 mM, wortmannin 10 μM, KU55933 10 μM, VE-821 10 μM; for NKG2DL expression, compound alone: HCT116 cells, 3 days. The protocol:
Data are representative of five independent experiments. […] Controls were stained with APC-conjugated anti-human Fc antibody alone without preincubation with NKG2D-Fc. Data are representative of three independent experiments. […] Results are representative of two independent experiments. […] (E) NKG2DL mRNA expression in the colon cancer cell lines was analyzed by qRT-PCR analysis. Data are normalized to GAPDH mRNA levels and are presented as fold-change relative to the expression in DMSO-treated cells (n=5). (F) Lentiviral-based luciferase reporter construct containing the putative ULBP2 promoter (−2415 to 0 bp from the transcription start site: 73 bp upstream of ATG) was transduced into the colon cancer cell lines. Positively transduced cells were selected by puromycin treatment (2 μg/ml) for 2 weeks. […] Data shown are expressed as fold-change relative to the luciferase activity observed in DMSO-treated cells (n=3). * P<0.05, ** P<0.01.
(§1) Cell lines were stained with allophycocyanin-conjugated anti-MICA, anti-MICB, or anti-ULBP2 antibodies for 20 min at 4° C. For ULBP1 and ULBP3 staining, cells were first incubated with anti-ULBP1 and anti-ULBP3 antibodies and then with allophycocyanin-conjugated goat anti-mouse IgG antibody. To analyze total NKG2DL cell surface expression, cells were first incubated with human NKG2D-Fc for 20 min at 4° C. and then with allophycocyanin-conjugated mouse anti-human IgG (Fc) antibody. Cells were washed and analyzed on a C6 flow cytometer (Accuri). Data were analyzed using FlowJo software (TreeStar).

A further data set deals with 47 NHRs in HCT116 cells. Briefly: human nuclear hormone receptor siRNA library / siRNA knockdown, NKG2DL expression by NKG2D-Fc staining. Type of data set: cell-based. The protocol: as §1
For the transfection study, 2×10^5 cells were transfected with 60 pmol of siRNA molecules using lipofectamine RNAiMAX according to the manufacturer's instructions (Invitrogen).
Consistent with previous reports, RXR-gamma was constitutively expressed in HCT116 cells (FIG. 5C) (Papi et al. 2010. Cancer Lett 297:65-74). Expression of RXR-gamma mRNA was also observed in all other cell lines tested. (FIG. 5D).

Another data set has as its system TIMP2 and TIMP3. Description: qRT-PCR of TIMP2 and TIMP3 mRNA. In kind it is cell-based, human. Particulars: HCT116 cells, 3 days. The protocol: (§2) The number of cells that invaded the ECM was determined after 24 h. Data are expressed as percentage change in tumor invasion relative to that of DMSO-treated cells (n=3). (D) Wound healing by DMSO- and SPIR-treated HCT116, HT29, and CAL27 cells was compared. Data are calculated as the percentage change in distance of migration relative to that of DMSO-treated cells (n=3). […] Tumor xenografts and lung metastases were detected by bioluminescence imaging on day 25. Data are shown as the average total flux (photons/second)±standard deviation (n=8). (F) The lung metastases (arrows) were confirmed by examining lung tissue sections. * P≤0.05, ** P<0.01, *** P<0.005, **** P<0.0001.
For qRT-PCR, total RNA was extracted from untreated or drug-treated tumor cells by using the RNA Clean & Concentrator (Zymo Research). All cDNA was generated by using the SuperScript VILO cDNA Synthesis kit (Life Technologies) and diluted 10-fold for analysis using the 7900HT Fast Real-time PCR System (Applied Biosystems). The data were calculated as the CT of target genes normalized to the CT of GAPDH of each sample. Primer sequences of the target genes were: MICA-F: 5′-[…]-3′, (SEQ ID NO: 14) MICA-R: 5′-[…]-[…]-3′, (SEQ ID NO: 15) MICB-F: 5′-[…]-3′, (SEQ ID NO: 16) MICB-R:5′-CCCTC-[…]-3′, (SEQ ID NO: 17), ULBP1-F:5′-[…]-3′, (SEQ ID NO: 18), ULBP1-R:5′-[…]-3′, (SEQ ID NO: 19), ULBP2-F:5′-[…]-3′, (SEQ ID NO: 20), ULBP2-R:5′-[…]-3′, (SEQ ID NO: 21), ULBP3-F:5′-[…]-TTCG-3′, (SEQ ID NO: 22), ULBP3-R:[…]-3′, (SEQ ID NO: 23), TIMP2-F:5′-[…]-[…]-3′, (SEQ ID NO: 24), TIMP2-R:[…]-3′, (SEQ ID NO: 25), TIMP3-F:5′-[…]-3′, (SEQ ID NO: 26), TIMP3-R:5′-[…]-[…]-3′ (SEQ ID NO: 27), GAPDH-F: 5′-[…]3′ (SEQ ID NO: 28), GAPDH-R: 5′-G-[…]-3′ (SEQ ID NO: 29). […] Differentially expressed transcripts were analyzed by ANOVA on Spotfire program.

Data set [2] deals with HCT116, HT29, and CAL27 cells. Briefly: wound-healing assay. In kind it is cell-based, human. Particulars: HCT116 cells. As for the experimental part: as §2
Confluent cell layers of CAL27 and HT29 cells with a 500 μm±50 μm gap were formed by using Ibidi culture inserts (RPI Corp.). Gap distances were measured at various times using a Nikon Eclipse Ti inverted microscope and NIS-Elements software (Nikon).

For data set [3], the system named is HCT116, HT29, and CAL27 cells. Briefly: in vitro cell invasion assay (ECM-coated Transwell). Type of data set: cell-based, human. The settings on record: HCT116 cells. The protocol:
as §2
The invasiveness of the tumor cells was determined by using the CytoSelect 96-well Cell Invasion Assay with Basement Membrane (Cell Biolabs) according to the manufacturer instructions.

With `CN1c2ccc([N+](=O)[O-])cc2N=C(c2ccc(C(=O)O)cc2)c2cc3c(cc21)C(C)(C)CCC3(C)C` [HX531], in data set [1], the “effect of co-treatment on SPIR's upregulation of NKG2DLs” value (shortened to “effect of co-treatment … of NKG2DLs”) was “significantly reduced”.

For the molecule `CC1=C(/C=C/C(C)=C\C=C\C(C)=C\C(=O)O)C(C)(C)CCC1` [9-cis-RA, 9-cis-retinoic acid], the “NKG2DL expression, compound alone” value in data set [1] is “did not induce the upregulation of NKG2DL expression; also recorded: decrease was observed”.

As to `O=c1cc(-c2cccc3c2Sc2ccccc2S3)oc(N2CCOCC2)c1` [KU55933], the “effect of co-treatment … of NKG2DLs” value in data set [1] is “completely abolished”.

As for “RXR-alpha siRNA: siRNA targeting RXR-alpha, ThermoScientific Cat No. D-003443-06; GGGAGAAGGUCUAUGCGUC (listed as RNA, chemistry not given here)”, in the data set on 47 NHRs in HCT116 cells, the “NKG2DL expression after gene knockdown without drug treatment” value is given as “enhances the expression of NKG2DLs; also recorded: increase of NKG2DL expression” and the “SPIR-mediated NKG2DL upregulation after siRNA knockdown” value is “did not affect the potential of SPIR in upregulating NKG2DL expression”.

`CS(=O)(=O)c1ccc(-c2cnc(N)c(C(=O)Nc3ccccc3)n2)cc1` [VE-821]: the “effect of co-treatment … of NKG2DLs” value in data set [1] was “only partially reduced”. The “effect of co-treatment on NKG2DL expression at increased concentration” value in data set [1] (HCT116, SPIR 56 μM, VE-821 20 μM) was “did not further affect NKG2DL expression”.

As to `COC(=O)[C@@H]1CC2=CC(=O)CC[C@]2(C)[C@@]23O[C@@H]2C[C@@]2(C)[C@@H](CC[C@@]24CCC(=O)O4)[C@H]13` [eplerenone], the “NKG2DL expression, compound alone” value in data set [1] is on record as “did not reproduce the phenotypes of enhanced expression of NKG2DL”. In the data set on TIMP2 and TIMP3, the TIMP2 expression result is on record as “neither canrenone nor eplerenone upregulated TIMP2 expression”. For the same molecule, in data set [2], the “cell migration, MR antagonists vs SPIR” value is on record as “did not reproduce the suppressive effect of SPIR”. Also, the “cell invasion, MR antagonists vs SPIR” value in data set [3] was “did not reproduce the suppressive effect of SPIR”.

Turning to `Cn1c(=O)c2c(ncn2C)n(C)c1=O` [caffeine], in data set [1], the “effect of co-treatment … of NKG2DLs” value is given as “completely abolished”.

As for `C[C@]12CCC(=O)C=C1C=C[C@@H]1[C@@H]2CC[C@@]2(C)[C@H]1CC[C@@]21CCC(=O)O1` [canrenone], the “NKG2DL expression, compound alone” value in data set [1] is “did not reproduce the phenotypes of enhanced expression of NKG2DL”. Also, the TIMP2 expression result in the data set with TIMP2 and TIMP3 is listed as “neither canrenone nor eplerenone upregulated TIMP2 expression”. In addition, in data set [2], the “cell migration, MR antagonists vs SPIR” value is reported as “did not reproduce the suppressive effect of SPIR”. In addition, in data set [3], the “cell invasion, MR antagonists vs SPIR” value is “did not reproduce the suppressive effect of SPIR”.
